# According to ChEMBL document CHEMBL1143045, “Tricyclic isoxazolines: identification of R226161 as a potential new antidepressant that combines potent serotonin reuptake inhibition and alpha2-adrenoceptor antagonism” (Bioorg Med Chem, 2007):
# Tests used:
# [1] = biological target: T1, Alpha-2B adrenergic receptor (Homo sapiens, UniProt P18089); experiment: Displacement of [3H]rawolscine from human cloned adrenergic alpha-2B receptor transfected in CHO cells; format: cell-based
# T1 sequence (P18089 whole entry): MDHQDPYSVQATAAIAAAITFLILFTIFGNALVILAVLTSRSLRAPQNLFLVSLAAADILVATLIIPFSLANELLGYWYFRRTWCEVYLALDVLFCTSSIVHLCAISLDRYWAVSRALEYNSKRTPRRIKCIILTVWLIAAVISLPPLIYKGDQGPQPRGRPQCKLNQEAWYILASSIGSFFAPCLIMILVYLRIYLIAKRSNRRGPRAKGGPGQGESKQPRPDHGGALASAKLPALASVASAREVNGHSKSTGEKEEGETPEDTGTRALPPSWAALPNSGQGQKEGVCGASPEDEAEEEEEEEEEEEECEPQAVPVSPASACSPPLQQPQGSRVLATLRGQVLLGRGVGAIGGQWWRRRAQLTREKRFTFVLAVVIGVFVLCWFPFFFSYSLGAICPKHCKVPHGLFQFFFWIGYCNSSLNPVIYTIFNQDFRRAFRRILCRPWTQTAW
# [2] = biological target: T2, Adrenergic receptor alpha-2 (Rattus norvegicus) (UniProt P22086+P19328+P22909); experiment: Reversal of medetomidine-induced loss of righting reflex in sc dosed Wistar rat after 1hr; format: functional, organism-based
# [3] = biological target: T3, Alpha-2C adrenergic receptor (Homo sapiens, UniProt P18825); experiment: Displacement of [3H]rawolscine from human cloned adrenergic Alpha-2C receptor transfected in CHO cells; format: cell-based
# T3 sequence (P18825 whole entry): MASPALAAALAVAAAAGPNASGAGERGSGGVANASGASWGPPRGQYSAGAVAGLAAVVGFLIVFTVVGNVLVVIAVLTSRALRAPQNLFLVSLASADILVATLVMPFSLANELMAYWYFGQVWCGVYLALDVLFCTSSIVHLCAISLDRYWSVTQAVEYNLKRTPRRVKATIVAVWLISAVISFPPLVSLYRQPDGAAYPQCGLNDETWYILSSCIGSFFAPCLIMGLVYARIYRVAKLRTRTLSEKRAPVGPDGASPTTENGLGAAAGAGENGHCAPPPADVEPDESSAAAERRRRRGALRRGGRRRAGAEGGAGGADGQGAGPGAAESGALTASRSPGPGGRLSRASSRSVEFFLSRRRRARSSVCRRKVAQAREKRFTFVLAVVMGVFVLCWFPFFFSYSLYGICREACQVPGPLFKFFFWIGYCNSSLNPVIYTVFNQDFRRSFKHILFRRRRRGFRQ
# [4] = biological target: Sodium-dependent serotonin transporter (Homo sapiens, UniProt P31645); experiment: Displacement of [3H]paroxetine from human cloned 5HTT receptor transfected in CHO cells; format: cell-based
# Sequence of Sodium-dependent serotonin transporter (P31645 whole entry): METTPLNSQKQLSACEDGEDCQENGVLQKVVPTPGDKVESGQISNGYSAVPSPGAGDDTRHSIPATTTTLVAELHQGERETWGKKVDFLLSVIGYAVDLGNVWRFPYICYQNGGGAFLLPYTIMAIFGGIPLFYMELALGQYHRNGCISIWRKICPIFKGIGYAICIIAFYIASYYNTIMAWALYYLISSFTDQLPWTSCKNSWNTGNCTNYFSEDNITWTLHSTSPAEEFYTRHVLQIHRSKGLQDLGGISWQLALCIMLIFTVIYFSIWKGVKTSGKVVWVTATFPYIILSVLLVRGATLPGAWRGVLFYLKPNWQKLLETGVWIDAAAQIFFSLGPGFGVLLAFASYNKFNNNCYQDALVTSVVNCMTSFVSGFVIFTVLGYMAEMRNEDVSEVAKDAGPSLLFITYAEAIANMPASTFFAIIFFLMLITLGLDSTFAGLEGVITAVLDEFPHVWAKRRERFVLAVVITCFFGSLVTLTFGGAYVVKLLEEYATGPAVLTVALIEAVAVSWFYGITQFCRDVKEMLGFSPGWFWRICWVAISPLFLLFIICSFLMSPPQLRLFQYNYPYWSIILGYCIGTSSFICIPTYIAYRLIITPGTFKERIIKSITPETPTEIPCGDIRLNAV
# [5] = biological target: T2, Adrenergic receptor alpha-2 (Rattus norvegicus); experiment: Reversal of medetomidine-induced loss of righting reflex in po dosed Wistar rat after 1hr; format: functional, organism-based
# [6] = biological target: Sodium-dependent serotonin transporter (Rattus norvegicus) (UniProt P31652); experiment: Antagonism of p-chloroamphetamine-induced excitation in sc dosed Wistar rat after 1 hr; format: functional, organism-based
# Sequence of Sodium-dependent serotonin transporter (Rattus norvegicus) (P31652 whole entry): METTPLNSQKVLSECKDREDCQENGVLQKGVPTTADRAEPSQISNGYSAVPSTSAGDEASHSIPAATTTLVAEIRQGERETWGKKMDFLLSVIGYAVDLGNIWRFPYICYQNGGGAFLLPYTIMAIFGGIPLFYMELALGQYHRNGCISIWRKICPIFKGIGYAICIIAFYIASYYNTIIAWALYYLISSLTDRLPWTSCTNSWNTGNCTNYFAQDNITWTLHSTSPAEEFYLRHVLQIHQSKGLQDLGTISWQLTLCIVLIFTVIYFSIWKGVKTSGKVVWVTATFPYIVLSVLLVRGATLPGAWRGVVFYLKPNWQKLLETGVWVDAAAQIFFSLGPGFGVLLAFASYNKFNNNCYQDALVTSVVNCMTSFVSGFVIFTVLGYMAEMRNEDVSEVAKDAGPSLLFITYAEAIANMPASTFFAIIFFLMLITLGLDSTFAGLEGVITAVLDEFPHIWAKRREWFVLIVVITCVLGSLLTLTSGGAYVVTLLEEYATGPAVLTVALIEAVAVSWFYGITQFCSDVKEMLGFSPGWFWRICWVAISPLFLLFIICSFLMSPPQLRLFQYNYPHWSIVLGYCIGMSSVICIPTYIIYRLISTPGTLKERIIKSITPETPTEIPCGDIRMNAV
# [7] = biological target: Sodium-dependent serotonin transporter (Rattus norvegicus) (UniProt P31652); experiment: Antagonism of p-chloroamphetamine-induced excitation in po dosed Wistar rat after 1 hr; format: functional, organism-based
# [8] = biological target: Sodium-dependent serotonin transporter (Rattus norvegicus) (UniProt P31652); experiment: Antagonism of p-chloroamphetamine-induced 5HT depletion in sc dosed Wistar rat prefrontal cortex after 1 hr; format: functional, organism-based
# [9] = biological target: T4, Alpha-2A adrenergic receptor (Homo sapiens, UniProt P08913); experiment: Displacement of [3H]rawolscine from human cloned adrenergic alpha2A receptor transfected in CHO cells; format: cell-based
# T4 sequence (P08913 whole entry): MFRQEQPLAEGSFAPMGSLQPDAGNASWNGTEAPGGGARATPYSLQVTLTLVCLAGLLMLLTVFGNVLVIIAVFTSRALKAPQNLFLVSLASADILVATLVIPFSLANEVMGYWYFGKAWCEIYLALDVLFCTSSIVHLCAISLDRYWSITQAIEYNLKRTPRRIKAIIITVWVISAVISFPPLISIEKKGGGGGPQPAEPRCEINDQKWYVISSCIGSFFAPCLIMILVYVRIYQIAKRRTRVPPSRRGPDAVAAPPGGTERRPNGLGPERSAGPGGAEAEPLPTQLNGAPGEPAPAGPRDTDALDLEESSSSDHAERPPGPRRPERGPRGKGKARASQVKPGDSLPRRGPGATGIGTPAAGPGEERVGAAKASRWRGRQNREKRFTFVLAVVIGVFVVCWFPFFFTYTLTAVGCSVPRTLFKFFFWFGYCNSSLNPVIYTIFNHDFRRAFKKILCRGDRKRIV
# [10] = biological target: T5, Alpha-1A adrenergic receptor (Homo sapiens, UniProt P35348); experiment: Displacement of [3H]prazosin from human cloned alpha-1A receptor
# T5 sequence (P35348 whole entry): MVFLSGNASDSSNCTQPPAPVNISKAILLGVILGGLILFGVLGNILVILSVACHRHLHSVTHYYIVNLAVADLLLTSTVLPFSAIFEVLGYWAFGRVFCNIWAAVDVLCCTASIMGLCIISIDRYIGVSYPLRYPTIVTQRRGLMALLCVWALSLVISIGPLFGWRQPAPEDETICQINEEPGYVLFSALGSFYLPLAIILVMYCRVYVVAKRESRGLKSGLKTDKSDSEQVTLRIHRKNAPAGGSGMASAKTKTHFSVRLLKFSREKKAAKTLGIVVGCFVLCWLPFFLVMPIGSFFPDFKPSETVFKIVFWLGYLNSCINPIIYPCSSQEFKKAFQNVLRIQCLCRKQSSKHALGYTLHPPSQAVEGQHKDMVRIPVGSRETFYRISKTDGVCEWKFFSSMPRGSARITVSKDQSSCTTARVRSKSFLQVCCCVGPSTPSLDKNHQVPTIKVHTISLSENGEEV
# [11] = biological target: Histamine H1 receptor (Homo sapiens, UniProt P35367); experiment: Displacement of [3H]pyrilamine from human cloned histamine H1 receptor
# Sequence of Histamine H1 receptor (P35367 whole entry): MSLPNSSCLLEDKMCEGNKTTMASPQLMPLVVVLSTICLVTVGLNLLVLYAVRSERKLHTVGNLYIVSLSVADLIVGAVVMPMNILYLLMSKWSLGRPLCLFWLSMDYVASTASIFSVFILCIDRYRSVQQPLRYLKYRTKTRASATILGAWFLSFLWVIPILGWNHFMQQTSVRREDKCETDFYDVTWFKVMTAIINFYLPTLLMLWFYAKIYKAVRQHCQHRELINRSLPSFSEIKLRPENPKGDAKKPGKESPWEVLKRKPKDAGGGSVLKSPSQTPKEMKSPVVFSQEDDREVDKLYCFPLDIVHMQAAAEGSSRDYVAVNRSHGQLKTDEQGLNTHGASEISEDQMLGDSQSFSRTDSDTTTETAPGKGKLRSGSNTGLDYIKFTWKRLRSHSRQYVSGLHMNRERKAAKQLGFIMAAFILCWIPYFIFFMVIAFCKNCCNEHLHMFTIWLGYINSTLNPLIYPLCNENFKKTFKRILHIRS
# [12] = biological target: D(3) dopamine receptor (Homo sapiens, UniProt P35462); experiment: Displacement of [125I]iodosulpiride from human cloned dopamine D3 receptor
# Sequence of D(3) dopamine receptor (P35462 whole entry): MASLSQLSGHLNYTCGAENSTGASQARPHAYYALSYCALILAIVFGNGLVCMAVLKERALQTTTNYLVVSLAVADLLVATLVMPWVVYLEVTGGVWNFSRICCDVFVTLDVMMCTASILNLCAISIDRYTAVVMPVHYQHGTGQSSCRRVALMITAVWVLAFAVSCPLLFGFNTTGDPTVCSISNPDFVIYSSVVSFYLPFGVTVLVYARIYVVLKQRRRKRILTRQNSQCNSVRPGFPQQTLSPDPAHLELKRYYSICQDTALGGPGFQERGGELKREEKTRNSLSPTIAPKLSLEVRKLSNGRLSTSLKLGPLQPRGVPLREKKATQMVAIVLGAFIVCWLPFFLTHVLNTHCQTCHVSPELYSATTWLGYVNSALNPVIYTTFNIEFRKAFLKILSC
# [13] = biological target: Substance-P receptor (Homo sapiens, UniProt P25103); experiment: Displacement of [3H]substance P from human cloned NK1 receptor
# Sequence of Substance-P receptor (P25103 whole entry): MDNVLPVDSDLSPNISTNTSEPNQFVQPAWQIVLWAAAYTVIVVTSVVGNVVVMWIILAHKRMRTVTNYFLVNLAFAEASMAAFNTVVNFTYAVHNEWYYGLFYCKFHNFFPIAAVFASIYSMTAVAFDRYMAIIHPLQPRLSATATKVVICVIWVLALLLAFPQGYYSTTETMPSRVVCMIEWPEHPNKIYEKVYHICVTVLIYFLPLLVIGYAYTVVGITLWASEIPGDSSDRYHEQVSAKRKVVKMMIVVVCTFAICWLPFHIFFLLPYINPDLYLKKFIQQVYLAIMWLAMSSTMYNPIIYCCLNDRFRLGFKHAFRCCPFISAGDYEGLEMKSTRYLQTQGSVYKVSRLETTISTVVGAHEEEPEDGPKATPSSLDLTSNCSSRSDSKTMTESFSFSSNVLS
# [14] = biological target: Sodium-dependent dopamine transporter (Rattus norvegicus, UniProt P23977); experiment: Displacement of [3H]WIN-35428 from rat DAT
# Sequence of Sodium-dependent dopamine transporter (P23977 whole entry): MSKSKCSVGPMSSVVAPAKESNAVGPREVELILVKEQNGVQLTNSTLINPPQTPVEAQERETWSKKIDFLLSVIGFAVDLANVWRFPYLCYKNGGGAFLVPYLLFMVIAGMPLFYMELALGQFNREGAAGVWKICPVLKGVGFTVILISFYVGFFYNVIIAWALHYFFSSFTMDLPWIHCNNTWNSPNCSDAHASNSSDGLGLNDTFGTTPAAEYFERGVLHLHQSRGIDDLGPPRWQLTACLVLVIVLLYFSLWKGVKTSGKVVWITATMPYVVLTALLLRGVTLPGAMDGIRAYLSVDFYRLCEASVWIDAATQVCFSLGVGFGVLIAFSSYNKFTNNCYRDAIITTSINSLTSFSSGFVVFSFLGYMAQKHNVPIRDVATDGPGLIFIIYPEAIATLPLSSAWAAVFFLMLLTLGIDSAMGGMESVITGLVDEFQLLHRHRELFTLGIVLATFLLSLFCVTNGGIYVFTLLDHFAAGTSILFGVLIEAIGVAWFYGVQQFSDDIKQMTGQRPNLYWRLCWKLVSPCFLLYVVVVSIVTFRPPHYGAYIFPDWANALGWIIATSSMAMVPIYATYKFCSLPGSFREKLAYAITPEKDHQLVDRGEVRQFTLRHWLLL
# [15] = biological target: Norepinephrine transporter (Rattus norvegicus, UniProt Q9WTR4); experiment: Displacement of [3H]nisoxetine from rat NET
# Sequence of Norepinephrine transporter (Q9WTR4 whole entry): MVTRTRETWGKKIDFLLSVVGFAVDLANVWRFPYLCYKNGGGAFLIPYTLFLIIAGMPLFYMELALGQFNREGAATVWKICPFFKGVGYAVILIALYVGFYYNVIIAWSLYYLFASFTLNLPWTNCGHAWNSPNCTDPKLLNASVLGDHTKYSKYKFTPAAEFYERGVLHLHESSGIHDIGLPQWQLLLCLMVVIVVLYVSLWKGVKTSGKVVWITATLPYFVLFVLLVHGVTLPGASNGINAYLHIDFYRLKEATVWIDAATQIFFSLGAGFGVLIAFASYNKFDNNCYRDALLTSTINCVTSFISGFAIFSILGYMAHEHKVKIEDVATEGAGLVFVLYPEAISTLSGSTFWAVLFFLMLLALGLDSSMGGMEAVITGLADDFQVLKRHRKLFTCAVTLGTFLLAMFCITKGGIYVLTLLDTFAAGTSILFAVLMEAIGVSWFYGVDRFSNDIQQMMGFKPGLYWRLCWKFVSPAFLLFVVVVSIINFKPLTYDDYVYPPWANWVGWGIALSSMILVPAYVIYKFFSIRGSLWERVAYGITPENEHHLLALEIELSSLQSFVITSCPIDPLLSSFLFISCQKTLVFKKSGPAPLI
Ki [1] [nM],ED50 [2] [mg/kg],Ki [3] [nM],Ki [4] [nM],Compound,also measured
8.4,,,,COc1cc2c(cc1OC)C1=NO[C@@H](CN3CCN(C/C(C)=C/c4ccc(F)cc4)CC3)[C@@H]1CO2 (racemic) [listing 1 of 2 here],
,0.1,,,COc1cc2c(cc1OC)C1=NO[C@@H](CN3CCN(C/C(C)=C/c4ccc(F)cc4)CC3)[C@@H]1CO2 (racemic) [listing 2 of 2 here],
1.5,,0.27,,COc1cc2c(cc1OC)C1=NO[C@@H](CN3CCN(C/C(C)=C/c4ccc(F)cc4)CC3)[C@@H]1CO2 (stereo in doubt; form 1),Ki [9]: 3.1 nM; Ki [10]: 125 nM; Ki [11]: 74 nM; Ki [12]: 375 nM; Ki [13]: 310 nM; Ki [14]: 583 nM; Ki [15]: 70 nM

# Further lines, the molecule ahead of its results:
Compound,Ki [1] [nM],ED50 [2] [mg/kg],Ki [3] [nM],Ki [4] [nM],also measured
"COc1cc2c(cc1OC)C1=NOC(CN3CCN(C/C(C)=C/c4ccccc4)CC3)C1CN2 (single isomer, unassigned; (+))",4.5,,0.93,79,
"COc1cc2c(cc1OC)C1=NOC(CN3CCN(C/C(C)=C/c4ccccc4)CC3)C1CN2 (single isomer, unassigned; (-))",,> 10,,,ED50 [5]: > 10 mg/kg; ED50 [6]: 0.32 mg/kg; ED50 [7]: 3.2 mg/kg; ED50 [8]: 0.81 mg/kg
COc1cc2c(cc1OC)C1=NOC(CN3CCN(C/C(C)=C/c4ccccc4)CC3)C1CN2 (racemic) [listing 1 of 2 here],,0.2,,,ED50 [6]: 2.2 mg/kg
COc1cc2c(cc1OC)C1=NOC(CN3CCN(C/C(C)=C/c4ccccc4)CC3)C1CN2 (racemic) [listing 2 of 2 here],12,,0.1,8.9,
COc1cc2c(cc1OC)C1=NOC(CN3CCN(C/C=C/c4ccc(F)cc4)CC3)C1CO2 (racemic),25,,23,5.6,Ki [9]: 9 nM
